Reference: US9150578B2, “5,8-dihydro-6H-pyrazolo[3,4-h]quinazolines as IGF-1R/IR inhibitors” (Boehringer Ingelheim International GmbH, priority 2012, dated 2015)

Key:
[1] = system: TC-71 (Ewing's sarcoma) cells; experiment: Cell proliferation assay, TC-71 (Alamar Blue); format: cell-based; settings: TC-71 cells, 72 h, read-out: TC71 EC50 range
Procedure: Cell Proliferation Assays
Published scientific data has described that interference with the Insulin-like Growth Factor-1 Receptor (IGF-1R) signaling pathway reduces the proliferation of TC-71 cells. Therefore TC-71 cells served as a positive control cell line for monitoring the activity of compounds against IGF-1R-mediated cell proliferation.
2000 TC-71 cells or 1000 HCT 116 cells were seeded per well in 180 μL IMDM+10% foetal calf serum (FCS)+penicillin/streptomycin into 96-well microtitre plates. The plates were placed in a cell culture incubator (37° C. in a humidified atmosphere of 95% […]/5 CO2) overnight. The following day, serial dilutions of compounds, prepared in duplicates, were transferred onto the cell layers (controls without compound). The cells were cultivated for a further 72 h in the cell culture incubator. 20 μL of Alamar Blue™ (Serotec Ltd, Düsseldorf, Germany) was added to each well and the plates incubated for 7 h in the cell culture incubator.

human IGF-1R = human IGF-1R (Homo sapiens (Human), UniProt P08069); experiment: Cellular IGF-1R-phosphorylation assay (Fibro-hIGF-1R cells); format: cell-based; settings: IGF-1 stimulated (20 ng/mL, 30 min), 120 min compound incubation, read-out: pIGF-1R EC50 range
Chain of human IGF-1R (P08069 31-1367): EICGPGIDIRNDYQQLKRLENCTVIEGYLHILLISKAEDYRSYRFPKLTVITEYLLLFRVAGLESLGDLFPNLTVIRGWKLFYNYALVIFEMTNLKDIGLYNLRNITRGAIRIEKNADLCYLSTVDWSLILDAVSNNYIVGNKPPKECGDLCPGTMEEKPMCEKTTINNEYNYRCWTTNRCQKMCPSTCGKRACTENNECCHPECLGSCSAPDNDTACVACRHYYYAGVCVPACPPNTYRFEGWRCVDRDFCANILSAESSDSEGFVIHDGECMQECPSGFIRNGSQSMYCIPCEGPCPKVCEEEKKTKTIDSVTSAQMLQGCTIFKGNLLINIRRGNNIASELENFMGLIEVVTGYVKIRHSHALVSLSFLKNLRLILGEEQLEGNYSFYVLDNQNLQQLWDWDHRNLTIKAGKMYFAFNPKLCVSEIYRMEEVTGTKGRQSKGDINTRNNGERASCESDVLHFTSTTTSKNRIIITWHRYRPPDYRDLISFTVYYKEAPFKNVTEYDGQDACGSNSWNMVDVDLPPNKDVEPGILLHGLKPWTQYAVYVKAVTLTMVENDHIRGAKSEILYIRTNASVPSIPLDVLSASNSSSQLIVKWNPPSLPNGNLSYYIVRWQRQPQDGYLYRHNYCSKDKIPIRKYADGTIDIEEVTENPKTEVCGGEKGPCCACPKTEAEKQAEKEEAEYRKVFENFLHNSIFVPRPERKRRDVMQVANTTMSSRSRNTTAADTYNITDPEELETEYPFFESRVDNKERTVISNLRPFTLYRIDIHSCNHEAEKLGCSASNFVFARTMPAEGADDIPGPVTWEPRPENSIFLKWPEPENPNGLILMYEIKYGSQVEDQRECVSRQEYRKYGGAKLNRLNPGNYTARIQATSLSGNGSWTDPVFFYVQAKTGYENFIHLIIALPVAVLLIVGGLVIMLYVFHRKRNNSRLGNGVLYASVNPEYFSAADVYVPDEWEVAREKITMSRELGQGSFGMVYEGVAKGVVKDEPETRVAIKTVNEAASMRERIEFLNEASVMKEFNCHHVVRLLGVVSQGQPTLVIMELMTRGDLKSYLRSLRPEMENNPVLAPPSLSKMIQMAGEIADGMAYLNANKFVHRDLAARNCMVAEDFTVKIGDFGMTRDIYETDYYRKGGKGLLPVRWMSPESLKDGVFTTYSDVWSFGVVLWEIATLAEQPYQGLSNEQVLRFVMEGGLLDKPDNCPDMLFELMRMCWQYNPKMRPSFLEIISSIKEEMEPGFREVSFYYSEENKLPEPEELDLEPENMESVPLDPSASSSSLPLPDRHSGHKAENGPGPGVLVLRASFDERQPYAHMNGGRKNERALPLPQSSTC
Procedure: Cellular IGF-1R-Phosphorylation Assay
The activity of substances against the phosphorylation of IGF-1R in activated cells is measured as follows: mouse fibroblast cells (transfected with human IGF-1R, Fibro-hIGF-1R) are cultivated in standard medium (DMEM, 10% foetal calf serum (FCS, Gibco), 1×MEM Non-Essential Amino Acids (NEAA, Gibco), 7.5% sodium hydrogen carbonate (Gibco) and 0.3 mg/mL Puromycin (Sigma)) in a humid incubator at 37° C. with 5 CO2/95% air.
10000 Fibro-hIGF-1R cells per well in 200 μL of standard medium are seeded into 96-well plates and cultivated overnight. […] 10 μL of substance solution (diluted in serum-reduced medium) is added thereto, and the cells are incubated for a further 120 min in the incubator. The phosphorylation of IGF-1R is activated for 30 min by the addition of IGF-1 (20 ng/mL in serum-reduced medium). All further incubations are carried out at RT. The supernatant is suction filtered from the wells, and the cells are fixed in 100 μL per well of 4% paraformaldehyde (diluted in PBS). The supernatant in the well is suction filtered and the cells are permeabilised for 5 min in 300 μL per well of 0.1% TritonX-100 (diluted in PBS). […] The cells are washed for 5 min with 300 μL per well of PBS with 0.1% TritonX-100 and then incubated for 60 min with 100 μL per well of blocking buffer (PBS with 0.1% TritonX-100 and 5 Bovine Serum Albumin (BSA)). […] The next day the plates are washed for 5 min with 300 μL PBS/0.1% TritonX-100 at RT and then incubated for 60 min with 50 μL per well of the second antibody buffer (1/500 diluted Goat Anti-Rabbit Immunoglobulin-Horseradish Peroxidase (HRP) (Dako) in blocking buffer) at RT. The plates are washed first for 5 min with 300 μL PBS/0.1% TritonX-100 and then for a further 5 min with 300 μL PBS at RT. The plates are developed for 10 min with 100 μL per well of a peroxidase solution (1:1 mixture of TMB Peroxidase Substrate and Peroxidase Solution B from Kirkegaard & Perry Laboratories, Inc.). The reactions are stopped with 100 μL per well of stop solution (1 M phosphoric acid). The absorbance in each well is measured at 450 nm with a SpectraMax Absorbance Reader. EC50 values for inhibiting the phosphorylation of the IGF-1R in activated cells are calculated using the programmes Fifty (Version 2) and GraphPad (Version 3.0).

[2] = biological target: cytoplasmic kinase domain of human IGF-1R (IGF-1R-GST) (Homo sapiens (Human), UniProt P08069); experiment: Insulin-like growth factor-1 receptor (IGF-1R) kinase assay (DELFIA); format: biochemical; settings: inhibition of IGF-1R-kinase activity, read-out: IGF1R IC50
Chain of cytoplasmic kinase domain of human IGF-1R (IGF-1R-GST) (P08069 964-1367 limits assumed): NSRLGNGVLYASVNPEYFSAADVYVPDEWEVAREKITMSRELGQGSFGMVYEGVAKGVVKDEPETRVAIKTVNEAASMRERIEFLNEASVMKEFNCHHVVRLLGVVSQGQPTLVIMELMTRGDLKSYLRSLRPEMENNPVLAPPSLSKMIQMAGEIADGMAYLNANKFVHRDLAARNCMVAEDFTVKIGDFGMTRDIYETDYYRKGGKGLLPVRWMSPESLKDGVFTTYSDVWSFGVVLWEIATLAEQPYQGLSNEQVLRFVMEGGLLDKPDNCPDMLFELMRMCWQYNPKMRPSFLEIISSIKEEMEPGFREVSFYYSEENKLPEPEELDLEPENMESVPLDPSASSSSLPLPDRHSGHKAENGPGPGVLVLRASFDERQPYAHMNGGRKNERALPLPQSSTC
Procedure: Insulin-Like Growth Factor-1 Receptor (IGF-1R)-Kinase Assay
The kinase activity is measured by DELFIA® assay (dissociation-enhanced lanthanide fluorescence immunoassay, Perkin Elmer). […] Enzyme activity is measured in the presence of substances and a control substance. Poly-glutamate-tyrosine peptide (pEY, Sigma Aldrich) and biotinylated pEY (bio-pEY) are used as reaction substrates.
After 40 min at RT the reactions are stopped with 50 μL of stop solution (250 mM EDTA, 20 mM HEPES pH 7.4). 90 μL from each reaction are transferred onto streptavidin-coated 96-well plates. After 120 min incubation at RT the plates are washed three times with 200 μL phosphate-buffered saline (PBS) per well. The plates are incubated for 60 min with 100 μL of europium-coupled antibody against phospho-tyrosine (diluted 1/2000 in Perkin Elmer DELFIA assay buffer) per well. The plates are washed three times with 200 μL per well of DELFIA washing buffer. 100 μL DELFIA Enhancement Solution (Perkin Elmer) is added to each well, and the plates are incubated for 10 min. The fluorescence signal is measured with a Wallac Victor TRF Reader. IC50 values for the inhibition of the IGF-1R-kinase activity are calculated using the programmes Fifty (Version 2) and GraphPad (Version 3.0).

Structure (SMILES)	EC50 [1] [nM]	EC50 (human IGF-1R) [nM]	IC50 [2] [nM]
COc1cc(N2CCN(S(=O)(=O)N(C)C)CC2)ccc1Nc1ncc2c(n1)-c1c(nn(C)c1-c1ccc(-c3cnn(C)c3)cc1)CC2 [I-176]	< 10	< 10	2
COc1cc(C(=O)NC(C)C)ccc1Nc1ncc2c(n1)-c1c(nn(C)c1-c1ccc(-c3cnn(C)c3)cc1)CC2 [I-132]	–	< 10	0.26
COc1cc(C(=O)N[C@@H]2CCN(C)C[C@H]2OC)ccc1Nc1ncc2c(n1)-c1c(nn(C)c1-c1ccc(-c3cnn(C)c3)cc1)CC2 [I-163]	< 10	< 10	0.23
CC(=O)N1CCC(n2cc(Nc3ncc4c(n3)-c3c(nn(C)c3-c3ccc(-c5cnn(C)c5)cc3)CC4)cn2)CC1 [I-051]	< 10	10 to 100	0.21
COCCn1cc(Nc2ncc3c(n2)-c2c(nn(C)c2-c2ccc(-c4cnn(C(C)C)c4)cc2)CC3)cn1 [I-027]	< 10	< 10	0.28
CCn1ccc(Nc2ncc3c(n2)-c2c(nn(C)c2-c2ccc(-c4cnn(C)c4)cc2Cl)CC3)n1 [I-064]	< 10	< 10	0.31
Cn1cc(-c2ccc(-c3c4c(nn3C)CCc3cnc(Nc5cnn(C6CCN(S(C)(=O)=O)CC6)c5)nc3-4)cc2)cn1 [I-177]	< 10	–	0.23
COc1cc(N2CCN(C3CCOCC3)CC2)ccc1Nc1ncc2c(n1)-c1c(nn(C)c1-c1ccc(-c3cnn(C)c3)cc1)CC2 [I-171]	< 10	< 10	0.08
CC(C)n1cc(-c2ccc(-c3c4c(nn3C)CCc3cnc(Nc5cnn(CCN(C)C)c5)nc3-4)cc2)cn1 [I-020]	< 10	< 10	0.21
COc1cc(C(=O)NC2CN(C)C2)ccc1Nc1ncc2c(n1)-c1c(nn(C)c1-c1ccc(-c3cnn(C)c3)cc1)CC2 [I-164]	< 10	10 to 100	0.19
COc1cc(N2CCN(C(C)C)CC2)ccc1Nc1ncc2c(n1)-c1c(nn(C)c1-c1ccc(-c3cnn(C)c3)cc1)CC2 [I-172]	< 10	< 10	0.05
CCn1ccc(Nc2ncc3c(n2)-c2c(nn(C)c2-c2ccc(-c4c(C)noc4C)cc2)CC3)n1 [I-066]	100 to 200	100 to 600	15
COc1cc(C(=O)N2CCN(C)CC2)ccc1Nc1ncc2c(n1)-c1c(nn(C)c1-c1ccc(-c3cnn(C)c3)cc1)CC2 [I-129]	< 10	< 10	0.16
CN(C)[C@H]1CCN(C(=O)Cn2ccc(Nc3ncc4c(n3)-c3c(nn(C)c3-c3ccc(-c5cnn(C)c5)cc3)CC4)n2)C1 [I-143]	< 10	10 to 100	0.24
CC(=O)N1CCC(n2cc(Nc3ncc4c(n3)-c3c(nn(C)c3-c3ccc(-c5cnn(C)c5)nc3)CC4)cn2)CC1 [I-180]	10 to 100	100 to 600	2
COc1cc(C(=O)NC2CCOCC2)ccc1Nc1ncc2c(n1)-c1c(nn(C)c1-c1ccc(-c3cnn(C)c3)cc1)CC2 [I-160]	< 10	< 10	0.61
CCN1CCN(c2ccc(Nc3ncc4c(n3)-c3c(nn(C)c3-c3ccc(-c5cnn(C)c5)cc3)CC4)c(OC)c2)CC1 [I-170]	< 10	< 10	0.09
CCn1ccc(Nc2ncc3c(n2)-c2c(nn(C)c2-c2ccc(-c4cnn(CCN5CCC(N(C)C)CC5)c4)cc2)CC3)n1 [I-119]	< 10	< 10	0.09
CC(C)n1cc(-c2ccc(-c3c4c(nn3C)CCc3cnc(Nc5cnn(CCN6CCOCC6)c5)nc3-4)cc2)cn1 [I-023]	< 10	< 10	0.42
COCCN1CCC(n2cc(Nc3ncc4c(n3)-c3c(nn(C)c3-c3ccc(-c5cnn(C)c5)cc3)CC4)cn2)CC1 [I-175]	< 10	–	0.16
CCn1ccc(Nc2ncc3c(n2)-c2c(nn(C)c2-c2ccc(-c4cnn(C5CCNCC5)c4)cc2)CC3)n1 [I-063]	< 10	10 to 100	0.16
CC(=O)N1CCC(n2cc(Nc3ncc4c(n3)-c3c(nn(C)c3-c3ccc(-c5cnn(C(C)C)c5)cc3)CC4)cn2)CC1 [I-022]	< 10	10 to 100	0.17
CN(C)S(=O)(=O)N1CCC(n2cc(Nc3ncc4c(n3)-c3c(nn(C)c3-c3ccc(-c5cnn(C)c5)cc3)CC4)cn2)CC1 [I-178]	< 10	–	0.34
COc1cc(C(=O)N2CCOCC2)ccc1Nc1ncc2c(n1)-c1c(nn(C)c1-c1ccc(-c3cnn(C)c3)cc1)CC2 [I-156]	< 10	< 10	0.22
CC(=O)N1CCC(n2cc(Nc3ncc4c(n3)-c3c(nn(C)c3Cc3cccc(-c5cnn(C)c5)c3)CC4)cn2)CC1 [I-013]	< 10	10 to 100	0.39
